Measurements from ChEMBL document CHEMBL1201862, “PubChem BioAssay data set” (2004).
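Grown in 96-well plates, cells were treated for 48 hours with each compound at five concentrations. Insufficient inhibition: endpoint recorded as highest concentration tested. GI50 marks 50% less growth.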 The source made the active and inactive calls. No stated cut-off is given here; in the data, active = GI50 up to about 1.1 µM and inactive = higher.

Key:
Test in all cases: growth of human tumour cells (NCI), 48 h
[1] = test system: OVCAR-3
[2] = test system: NCI-H226
[3] = test system: OVCAR-8
[4] = test system: CAKI-1
[5] = test system: HT-29
[6] = test system: HCC 2998
[7] = test system: SK-MEL-5
[8] = test system: SN12C
[9] = test system: SNB-75
[10] = test system: 786-0
[11] = test system: A498
[12] = test system: SR
[13] = test system: SNB-78
[14] = test system: RXF 393
[15] = test system: SF-539
[16] = test system: UO-31
[17] = test system: HCT-15
[18] = test system: CCRF-CEM
[19] = test system: U-251
[20] = test system: MDA-N

Row | SMILES | GI50 [1] | GI50 [2] | GI50 [3] | GI50 [4] | GI50 [5] | GI50 [6] | GI50 [7] | GI50 [8] | GI50 [9] | GI50 [10] | GI50 [11] | GI50 [12] | GI50 [13] | GI50 [14] | GI50 [15] | GI50 [16] | GI50 [17] | GI50 [18] | GI50 [19] | GI50 [20]
1 | NCCCN(CCCN)CCCNCc1c2ccccc2c(CNCCCN(CCCN)CCCN)c2ccccc12 | 19 µM (inactive) | 72.1 µM (inactive) | 12.4 µM (inactive) | 16.2 µM (inactive) | 11 µM (inactive) | 4.51 µM (inactive) | 4.6 µM (inactive) | 15.4 µM (inactive) | 16.5 µM (inactive) | 11.4 µM (inactive) | 28.2 µM (inactive) | 35.2 µM (inactive) | 30.8 µM (inactive) | 21.4 µM (inactive) | 14.7 µM (inactive) | 29.6 µM (inactive) | 14.4 µM | > 100 µM (inactive) | 16.7 µM (inactive) | 
2 | CN1CCN(C)C12C=c1ccccc1=CC21CC1 | 62.1 µM (inactive) | > 100 µM (inactive) | 53.5 µM (inactive) | 74.1 µM (inactive) | 17.2 µM (inactive) | 16.3 µM (inactive) | 23.2 µM (inactive) | 81.1 µM (inactive) | 45.6 µM (inactive) | 54 µM (inactive) | > 100 µM (inactive) | 25.3 µM (inactive) | > 72.4 µM (inactive) | 55.5 µM (inactive) | 37.9 µM (inactive) | 40.9 µM (inactive) | 32.8 µM | 24.2 µM (inactive) | 37.8 µM (inactive) | 27.4 µM (inactive)
3 | O=S(=O)(O)c1cc(/N=N/c2cc(S(=O)(=O)O)c3cccnc3c2O)ccc1/C=C/c1ccc(/N=N/c2cc(S(=O)(=O)O)c3cccnc3c2O)cc1S(=O)(=O)O | > 100 µM (inactive) | > 100 µM (inactive) | > 100 µM (inactive) | > 100 µM (inactive) | > 100 µM (inactive) | > 100 µM (inactive) | > 100 µM (inactive) | > 100 µM (inactive) | > 100 µM (inactive) | > 100 µM (inactive) | > 100 µM (inactive) | 21.7 µM (inactive) | > 100 µM (inactive) | > 31.6 µM (inactive) | > 100 µM (inactive) | > 100 µM (inactive) | > 100 µM | 18.3 µM (inactive) | > 100 µM (inactive) | > 100 µM (inactive)
4 | COc1c(Cl)c2c(c(OC)c1OC)-c1ccc(OC)c(=O)c(Cl)c1C(NC(C)=O)CC2 (stereo unspecified) | 0.117 µM (active) | 0.316 µM (active) | 0.353 µM (active) | 0.608 µM (active) | 0.156 µM (active) | 0.182 µM (active) | 0.141 µM (active) | 0.444 µM (active) | 0.1 µM (active) | 0.308 µM (active) | 0.0593 µM (active) | 0.444 µM (active) | 0.36 µM (active) | 0.0382 µM (active) | 0.148 µM (active) | 3.63 µM (inactive) | 0.356 µM | 0.305 µM (active) | 0.235 µM (active) | 
5 | Cn1c(=O)nc2n(-c3cc(C(F)(F)F)cc(C(F)(F)F)c3)c3ccccc3nc-2c1=O | 64.7 µM (inactive) | > 100 µM (inactive) | > 100 µM (inactive) | > 100 µM (inactive) | > 100 µM (inactive) | > 100 µM (inactive) | 8.18 µM (inactive) | > 100 µM (inactive) | 18.8 µM (inactive) | > 100 µM (inactive) | > 100 µM (inactive) | > 100 µM (inactive) | > 100 µM (inactive) | 75.7 µM (inactive) | > 100 µM (inactive) | > 100 µM (inactive) | > 100 µM |  | > 100 µM (inactive) | 
6 | CC(C)C1=Cc2ccc3c(c2C(=O)C1=O)CCCC3 | 2.33 µM (inactive) | 15 µM (inactive) | 5.64 µM (inactive) | 0.955 µM (active) | 9.06 µM (inactive) | 17.1 µM (inactive) | 7.1 µM (inactive) | 5.27 µM (inactive) | 2.05 µM (inactive) | 2.43 µM (inactive) | 13.1 µM (inactive) | 0.515 µM (active) | 4.93 µM (inactive) | 4.32 µM (inactive) | 8.07 µM (inactive) | 3.31 µM (inactive) | 3.08 µM | 0.65 µM (active) | 19.1 µM (inactive) | 6.61 µM (inactive)
7 | O=C1C2C3C=CC(C2C(=O)N1CN1CCOCC1)C1C2C(=O)N(CN4CCOCC4)C(=O)C2C31 (stereo unspecified) | > 55.7 µM (inactive) | > 47.3 µM (inactive) | > 48.3 µM (inactive) | > 68.2 µM (inactive) | > 60 µM (inactive) | > 46.5 µM (inactive) | > 43.2 µM (inactive) | > 44.7 µM (inactive) | > 47.3 µM (inactive) | > 42.8 µM (inactive) | > 57.4 µM (inactive) | 30.8 µM (inactive) | 32.9 µM (inactive) | > 49 µM (inactive) | > 56.8 µM (inactive) | > 54 µM (inactive) | > 42.4 µM | 18.7 µM (inactive) | > 45.3 µM (inactive) | > 100 µM (inactive)
